Counter-ions that a name gives are not always drawn.
How the values were obtained:
CCK receptors [1] = biological target: T1, CCK receptors (Cavia porcellus, UniProt H0VZC5); experiment: [125I]BH-CCK8 radioligand binding, guinea pig cerebral cortical membranes; conditions: 30°C for 150 min, read-out: IC₅₀ (nM) [¹²⁵I]-BH-CCK₈ Cortex
T1 construct: cortex and pancreas were removed and rinsed with ice-cold saline; from tissue; host or cells: guinea pig cerebral cortex membranes
T1 sequence (H0VZC5 1-426): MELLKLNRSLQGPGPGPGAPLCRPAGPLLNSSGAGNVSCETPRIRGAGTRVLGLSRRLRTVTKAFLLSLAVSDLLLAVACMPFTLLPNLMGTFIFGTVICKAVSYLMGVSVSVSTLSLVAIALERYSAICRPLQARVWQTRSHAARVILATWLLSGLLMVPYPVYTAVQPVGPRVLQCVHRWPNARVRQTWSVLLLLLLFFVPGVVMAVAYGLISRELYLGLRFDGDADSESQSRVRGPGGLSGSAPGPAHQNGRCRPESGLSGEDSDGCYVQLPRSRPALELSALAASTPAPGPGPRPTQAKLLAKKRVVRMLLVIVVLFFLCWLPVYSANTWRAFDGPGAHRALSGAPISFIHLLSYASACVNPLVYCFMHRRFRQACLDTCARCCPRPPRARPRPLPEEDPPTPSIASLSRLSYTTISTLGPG

CCK receptors [2] = biological target: T2, CCK receptors (Cavia porcellus, UniProt Q63931); experiment: [125I]BH-CCK8 radioligand binding, guinea pig pancreatic membranes; conditions: 37°C for 30 min, read-out: IC₅₀ (nM) [¹²⁵I]-BH-CCK₈ Pancreas
T2 construct: cortex and pancreas were removed and rinsed with ice-cold saline; from tissue; host or cells: guinea pig pancreas membranes
T2 sequence (Q63931 1-430): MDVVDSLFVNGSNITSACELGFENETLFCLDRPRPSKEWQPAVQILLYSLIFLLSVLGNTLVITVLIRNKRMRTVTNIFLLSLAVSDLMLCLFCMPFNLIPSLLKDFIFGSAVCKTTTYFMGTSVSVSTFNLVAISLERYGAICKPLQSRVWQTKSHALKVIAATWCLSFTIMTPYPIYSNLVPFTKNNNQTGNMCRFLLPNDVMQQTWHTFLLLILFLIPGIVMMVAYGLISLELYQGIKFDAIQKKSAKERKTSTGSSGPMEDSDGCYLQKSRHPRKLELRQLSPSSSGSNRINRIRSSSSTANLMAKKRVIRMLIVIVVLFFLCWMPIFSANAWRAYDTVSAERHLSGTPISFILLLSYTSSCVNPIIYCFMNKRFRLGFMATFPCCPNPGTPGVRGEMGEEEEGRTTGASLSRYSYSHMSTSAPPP

CCK receptors [3] = biological target: T2, CCK receptors; experiment: Inhibition of CCK8-stimulated amylase release from guinea pig pancreatic acini; type: cell-based; conditions: reference concentration for CCK₈ 3x10⁻¹⁰M, 37°C, 30 min, read-out: IC₅₀ (nM) Inhibition of Amylase Release
Experimental: This assay was performed using the modified protocol of Lin et al., J. Pharmacol Exp. Ther. 236, 729-734, 1986. Guinea pig acini were prepared by the method of Bruzzone et al. (Biochem. J. 226, 621-624, 1985) as follows. Pancreas was dissected out and connective tissues and blood vessels were removed. […] The composition of the KRH buffer was: HEPES, 12.5 mM: NaCl, 118 mM; […] CaCl₂, 1 mM; KH₂PO₄, 1.2 mM; MgSO₄, 1.2 mM; NaHCO₃, 5 mM; glucose, 10 mM, pH 7.4. The buffer was supplemented with 1% MEM vitamins, 1% MEM amino acids and 0.001% aprotinin. The tube was shaken by hand until the suspension appeared homogeneous, usually 5 to 6 min. 5 mL of the KRH, without collagenase and with 0.1% BSA, were added and the tube was centrifuged at 50 x g for 35 sec. The supernatant was discarded and 6 mL of the KRH were added to the cell pellet. […] This wash procedure was repeated once. The cell pellet from the last centrifugation step was then resuspended in 15 mL of KRH containing 0.1% BSA. The contents were filtered through a dual nylon mesh, size 275 and 75 um. The filtrate, containing the acini, were centrifuged at 50 x g for 3 min. The acini were then resuspended in 5 mL of KRH-BSA buffer for 30 min at 37°C, under 100% O₂, with a change of fresh buffer at 15 min. After the 30 min incubation time, the acini were resuspended in 100 volumes of KRH-BSA buffer, containing 3 uM phosphoramidon and 100 µM bestatin. […] The final assay volume was 500 uL. Tubes were vortexed and placed in a 37°C waterbath, under 100% O₂, for 30 min. Afterward, tubes were centrifuged at 10,000 g for 1 min. Amylase activity in the supernatant and the cell pellet were separately determined after appropriate dilutions in 0.1% Triton X-100, 10 mM NaH₂PO₄, pH 7.4 by Abbott Amylase A-gent test using the Abbott Bichromatic Analyzer 200. […]

Structure (SMILES)	IC50 (CCK receptors [1]) [nM]	IC50 (CCK receptors [2]) [nM]	IC50 (CCK receptors [3]) [nM]
CCCCCN(CCCCC)C(=O)C(Cc1c[nH]c2ccc(OCc3ccccc3)cc12)NC(=O)c1cnc2ccccc2c1 (racemic) [Example 53, N-(3′-Quinolylcarbonyl)-R,S-5-benzyloxytryptophan-di-n-pentylamide]	> 10000	–	–
CCCCCN(CCCCC)C(=O)C(Cc1c[nH]c2ccc(F)cc12)NC(=O)c1cnc2ccccc2c1 (racemic) [Example 63, N-(3′-Quinolylcarbonyl)-R,S-5-fluorotryptophan-di-n-pentylamide]	> 10000	62	–
CCCCCN(CCCCC)C(=O)C(Cc1c[nH]c2ccc(F)cc12)NC(=O)c1cc2ccccc2[nH]1 (racemic) [Example 64, N-(2′-Indolylcarbonyl)-R,S-5-fluorotryptophandi-n-pentylamide]	10000	330	–
CCCCCN(CCCCC)C(=O)[C@@H](Cc1c[nH]c2ccccc12)NC(=O)c1cc2ccccc2[nH]1 [Example 3, N-(2′-Indolylcarbonyl)-R-Tryptophan-di-n-pentylamide]	–	51	670
CCCCCN(CCCCC)C(=O)[C@@H](Cc1c[nH]c2ccccc12)NC(=O)c1ccc(Cl)cc1 [Example 4, N-(p-Chlorobenzoyl)-R-Tryptophan-di-n-pentylamide]	–	330	–
O=C(N[C@H](Cc1c[nH]c2ccccc12)C(=O)NCc1ccccc1)c1cnc2ccccc2c1 [Example 7, N-(3′-Quinolylcarbonyl)-R-Tryptophan-benzylamide]	–	–	< 30000
O=C(N[C@H](Cc1c[nH]c2ccccc12)C(=O)NCc1ccccc1)c1cc2ccccc2[nH]1 [Example 8, N-(2′-Indolylcarbonyl)-R-Tryptophan-benzylamide]	> 10000	420	< 10000
C[C@@H](NC(=O)C(Cc1c[nH]c2ccccc12)NC(=O)c1cc2ccccc2[nH]1)c1ccccc1 (stereo partly drawn) [Example 18, N-(2′-Indolylcarbonyl)-Tryptophan-(1′,R-phenylethyl)amide]	10000	680	< 30000
C[C@H](NC(=O)C(Cc1c[nH]c2ccccc12)NC(=O)c1cc2ccccc2[nH]1)c1ccccc1 (stereo partly drawn) [Example 19, N-(2′-Indolylcarbonyl)-Tryptophan-(1′,S-phenylethyl)amide]	> 10000	1000	< 10000
COC(=O)[C@@H](NC(=O)[C@@H](Cc1c[nH]c2ccccc12)NC(=O)c1cc2ccccc2[nH]1)c1ccccc1 [Example 25, Methyl N-(2,indolylcarbonyl)-R-Tryptophyl-S-Phenylglycinate]	10000	150	< 10000
CCOC(=O)CN(Cc1ccccc1)C(=O)[C@@H](Cc1c[nH]c2ccccc12)NC(=O)c1cc2ccccc2[nH]1 [Example 28, Ethyl N-(2′-Indolylcarbonyl)-R-Tryptophyl-(N-benzyl)Glycinate]	10000	280	< 10000
CCCCCN(CCCCC)C(=O)[C@@H](Cc1c(Sc2ccccc2[N+](=O)[O-])[nH]c2ccccc12)NC(=O)c1cnc2ccccc2c1 [Example 45, N-(3′-Quinolylcarbonyl)-2-(2′-nitrophenylsulfenyl)-R-Tryptophan-di-n-pentylamide]	> 10000	1500	–
O=C(NC(Cc1c[nH]c2ccccc12)C(=O)Nc1cnc2ccccc2c1)c1cnc2ccccc2c1 (stereo not drawn) [Example 46, N-(3′-Quinolylcarbonyl)-Tryptophan-N-(3′-quinolyl)amide]	–	–	< 10000
COC(=O)[C@@H](NC(=O)[C@@H](Cc1c[nH]c2ccccc12)NC(=O)c1cnc2ccccc2c1)c1ccc(O)cc1 [Example 50, Methyl N-(3′-Quinolylcarbonyl)-R-Tryptophyl-S-(p-hydroxyphenyl)glycinate]	> 10000	1200	–
CCCCCN(CCCCC)C(=O)C(Cc1c[nH]c2ccccc12)NC(=O)C=Cc1cccnc1 (stereo not drawn) [Example 54, N-(3′-(3˝-Pyridyl)prop-2-enoyl)-R-Tryptophan-di-n-pentylamide]	–	–	< 100000
CCCCCN(CCCCC)C(=O)[C@@H](Cc1c[nH]c2ccccc12)NC(=O)C1=C(C)c2ccccc2C1 [Example 57, N-(2′-(3′-Methylindenyl)carbonyl)-R-Tryptophan-di-n-pentylamide]	> 10000	750	–
CCCCCN(CCCCC)C(=O)[C@@H](CC1C(=O)Nc2ccccc21)NC(=O)c1cnc2ccccc2c1 (stereo partly drawn) [Example 69, N-(3′-Quinolylcarbonyl)-R-(β-oxyindolyl)Ala-di-n-pentylamide]	4100	10	–
CCCCCN(CCCCC)C(=O)[C@H]1Cc2c([nH]c3ccccc23)N1C(=O)c1cnc2ccccc2c1 [Example 78, 2,3-Dihydro-1-(3′-quinolylcarbonyl)-pyrrolo[2,3-b]indole-(2R)-dipentylcarboxamide]	> 10000	370	–
CCCCCN(CCCCC)C(=O)[C@@H](Cc1c[nH]c2ccc(O)cc12)NC(=O)c1cnc2ccccc2c1 [Example 84, N^α-(3′-Quinolylcarbonyl)-R-5-hydroxytryptophan-di-n-pentylamide]	< 10000	2.6	–
CCCCCN(CCCCC)C(=O)[C@@H](Cc1c[nH]c2ccccc12)NC(=O)c1ccc2cccc(O)c2n1 [Example 90, N′(8′-Hydroxy-2′-quinolylcarbonyl)-R-Tryptophan-di-n-pentylamide]	> 10000	230	–
CCCCCN(CCCCC)C(=O)[C@@H](Cc1c[nH]c2ccccc12)NC(=O)c1cc(O)c2cccc(O)c2n1 [Example 91, N-(4′,8′-Dihydroxy-2′-quinolylcarbonyl)-R-Tryptophan-di-n-pentylamide]	–	5	–
CCCCCN(CCCCC)C(=O)[C@@H](Cc1c[nH]c2ccccc12)NC(=O)c1ccc2cc(O)ccc2c1 [Example 93, N-(6′-Hydroxy-2′-naphthoyl)-R-Tryptophan-di-n-pentylamide]	–	–	100000
CCCCCN(CCCCC)C(=O)[C@@H](Cc1c[nH]c2ccccc12)NC(=O)c1cc2ccccc2cn1 [Example 96, N-(3′-Isoquinolylcarbonyl)-R-Tryptophan-di-n-pentylamide]	–	630	< 100000
CCCCCN(CCCCC)C(=O)[C@@H](Cc1c[nH]c2ccccc12)NC(=O)c1ccc2ncccc2c1 [Example 97, N-(6′-Quinolylcarbonyl)-R-Tryptophan-di-n-pentylamide]	–	180	< 100000
CCCCCN(CCCCC)C(=O)[C@@H](Cc1c[nH]c2ccccc12)NC(=O)c1cc2cc(C)ccc2[nH]1 [Example 105, N-(5′-Methyl-2′-indolylcarbonyl)-R-Tryptophan-di-n-pentylamide]	> 10000	620	–
CCCCCN(CCCCC)C(=O)[C@@H](Cc1c[nH]c2ccccc12)NC(=O)c1cc2cc(F)ccc2[nH]1 [Example 106, N-(5′-Fluoro-2′-indolylcarbonyl)-R-Tryptophan-di-n-pentylamide]	–	82	–
CCCCCN(CCCCC)C(=O)[C@@H](Cc1c[nH]c2ccccc12)NC(=O)c1cnc2ccccc2c1 [Example 117, N-(3′-Quinolylcarbonyl)-R-Tryptophan-di-n-pentylamide mesylate salt]	13000	17	–

Source: patent EP0336356A2, “Derivatives of tryptophan as CCK antagonists” (ABBOTT LABORATORIES, priority 1988, dated 1989)
